Source: patent US9221756B2, “Pyrrole derivatives” (priority 2011, dated 2015)

biological target: pneumolysin (Streptococcus pneumoniae serotype 2, UniProt Q04IN8); test: Inhibition of the haemolytic activity of pneumolysin (sheep erythrocytes); format: cell-based; details: IC50, inhibition of pneumolysin-induced haemolysis of sheep erythrocytes; class symbols of Table 1
Sequence (Q04IN8 whole entry): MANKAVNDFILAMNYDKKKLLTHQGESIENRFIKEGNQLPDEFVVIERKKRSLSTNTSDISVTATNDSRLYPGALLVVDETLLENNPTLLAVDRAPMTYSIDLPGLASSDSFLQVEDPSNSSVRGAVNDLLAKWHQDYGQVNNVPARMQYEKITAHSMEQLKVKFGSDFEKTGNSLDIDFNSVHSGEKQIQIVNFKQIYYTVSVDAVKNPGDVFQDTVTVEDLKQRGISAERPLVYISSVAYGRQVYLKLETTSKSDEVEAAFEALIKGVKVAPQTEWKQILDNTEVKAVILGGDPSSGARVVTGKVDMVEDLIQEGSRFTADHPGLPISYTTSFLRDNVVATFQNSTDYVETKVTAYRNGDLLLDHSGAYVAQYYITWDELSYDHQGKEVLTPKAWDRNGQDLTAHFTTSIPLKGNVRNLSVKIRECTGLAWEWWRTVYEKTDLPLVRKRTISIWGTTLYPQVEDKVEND

SMILES | IC50 [µM]
CCOC(=O)c1c(OC(=O)C(C)(C)COCCOCCOCCOCCOCCOCCOCCOC)c(OC(=O)C(C)(C)COCCOCCOCCOCCOCCOCCOCCOC)c(C(=O)N(C)C)n1-c1ccc(OC)cc1 [UL1-119, 2-(dimethylcarbamoyl)-5-(ethoxycarbonyl)-1-(4-methoxyphenyl)-1H-pyrrole-3,4-diyl bis(25,25-dimethyl-2,5,8,11,14,17,20,23-octaoxahexacosan-26-oate)] | < 10
CCOC(=O)c1c(O)c(O)c(C(=O)OCC)n1-c1cccc(OC)c1 [UL2-004, diethyl 3,4-dihydroxy-1-(3-methoxyphenyl)-1H-pyrrole-2,5-dicarboxylate] | 10 to 20
CCOC(=O)c1c(O)c(O)c(C(=O)OCC)n1-c1ccc(OCC)cc1 [UL2-008, diethyl 1-(4-ethoxyphenyl)-3,4-dihydroxy-1H-pyrrole-2,5-dicarboxylate] | < 10
CCOC(=O)c1c(O)c(O)c(C(=O)OCC)n1-c1ccccc1 [UL2-002, diethyl 3,4-dihydroxy-1-phenyl-1H-pyrrole-2,5-dicarboxylate] | < 10
CCNC(=O)c1c(O)c(O)c(C(=O)N(C)C)n1-c1ccc(OC)cc1 [UL1-024, N^2-ethyl-3,4-dihydroxy-1-(4-methoxyphenyl)-N^5,N^5-dimethyl-1H-pyrrole-2,5-dicarboxamide] | < 10
COc1ccc(-n2c(C(=O)N3CCN(C(=O)OC(C)(C)C)CC3)c(OCc3ccccc3)c(OCc3ccccc3)c2C(=O)N2CCN(C(=O)OC(C)(C)C)CC2)cc1 [UL1-048, di-tert-butyl 4,4′-(3,4-bis(benzyloxy)-1-(4-methoxyphenyl)-1H-pyrrole-2,5-dicarbonyl)bis(piperazine-1-carboxylate)] | < 10
CC(C)(C)OC(=O)N1CCN(C(=O)c2c(O)c(O)c(C(=O)N3CCN(C(=O)OC(C)(C)C)CC3)n2-c2ccc(F)cc2)CC1 [UL1-009, di-tert-butyl 4,4′-(1-(4-fluorophenyl)-3,4-dihydroxy-1H-pyrrole-2,5-dicarbonyl)bis(piperazine-1-carboxylate)] | < 10
CCCCN(CCCC)C(=O)c1c(O)c(O)c(C(=O)OCC)n1-c1ccc(OC)cc1 [UL1-038, ethyl 5-(dibutylcarbamoyl)-3,4-dihydroxy-1-(4-methoxyphenyl)-1H-pyrrole-2-carboxylate] | < 10
CCOC(=O)c1c(OCc2ccccc2)c(OCc2ccccc2)c(C(N)=O)n1-c1ccc(OC)cc1 [UL1-079, ethyl 3,4-bis(benzyloxy)-5-carbamoyl-1-(4-methoxyphenyl)-1H-pyrrole-2-carboxylate] | < 10
CCOc1ccc(-n2c(C(N)=O)c(O)c(O)c2C(N)=O)cc1 [UL1-077, 1-(4-ethoxyphenyl)-3,4-dihydroxy-1H-pyrrole-2,5-dicarboxamide] | 20 to 60
COc1ccc(-n2c(C(=O)N(C)C)c(OCc3ccccc3)c(OCc3ccccc3)c2C(=O)N2CCOCC2)cc1 [UL1-058, 3,4-bis(benzyloxy)-1-(4-methoxyphenyl)-N,N-dimethyl-5-(morpholine-4-carbonyl)-1H-pyrrole-2-carboxamide] | 20 to 60
CCOC(=O)c1c(O)c(O)c(C(=O)N(C)C)n1-c1ccc(OCCCN2CCN(C)CC2)cc1 [UL1-103, ethyl 5-(dimethylcarbamoyl)-3,4-dihydroxy-1-(4-(3-(4-methylpiperazin-1-yl)propoxy)phenyl)-1H-pyrrole-2-carboxylate] | < 10
CCOC(=O)c1c(O)c(O)c(C(=O)OCC)n1-c1ccc(F)cc1 [UL2-003, diethyl 1-(4-fluorophenyl)-3,4-dihydroxy-1H-pyrrole-2,5-dicarboxylate] | 10 to 20
CCOC(=O)c1c(OCc2ccccc2)c(OCc2ccccc2)c(-c2nnc(C)o2)n1-c1ccc(OC)cc1 [UL1-087, ethyl 3,4-bis(benzyloxy)-1-(4-methoxyphenyl)-5-(5-methyl-1,3,4-oxadiazol-2-yl)-1H-pyrrole-2-carboxylate] | < 10
CCOC(=O)c1c(O)c(OCCO)c(C(=O)OCC)n1-c1ccc(OC)cc1 [UL2-026, diethyl 3-hydroxy-4-(2-hydroxyethoxy)-1-(4-methoxyphenyl)-1H-pyrrole-2,5-dicarboxylate] | 20 to 60
CN(C)C(=O)c1c(OCc2ccccc2)c(OCc2ccccc2)c(C#N)n1-c1ccc(F)cc1 [UL1-061, 3,4-bis(benzyloxy)-5-cyano-1-(4-fluorophenyl)-N,N-dimethyl-1H-pyrrole-2-carboxamide] | < 10
CCOC(=O)c1c(O)c(O)c(C(=O)N(C)C)n1-c1ccc(OCCCP(=O)(O)O)cc1 [UL1-107, (3-(4-(2-(dimethylcarbamoyl)-5-(ethoxycarbonyl)-3,4-dihydroxy-1H-pyrrol-1-yl)phenoxy)propyl)phosphonic acid] | < 10
COc1ccccc1-n1c(C(=O)N2CCOCC2)c(O)c(O)c1C(=O)N1CCOCC1 [UL1-020, (3,4-dihydroxy-1-(2-methoxyphenyl)-1H-pyrrole-2,5-diyl)bis(morpholinomethanone)] | < 10
COc1ccc(-n2c(C(=O)OC(C)C)c(O)c(O)c2C(=O)N(C)C)cc1 [UL1-035, isopropyl 5-(dimethylcarbamoyl)-3,4-dihydroxy-1-(4-methoxyphenyl)-1H-pyrrole-2-carboxylate] | < 10

SMILES | IC50 [µM]
CCN(CC)C(=O)c1c(O)c(O)c(C(=O)N(CC)CC)n1-c1ccc(OC)cc1 [UL1-003, N^2,N^2,N^5,N^5-tetraethyl-3,4-dihydroxy-1-(4-methoxyphenyl)-1H-pyrrole-2,5-dicarboxamide] | < 10
COCCOCCOCCOCCOCCOCCOCCOCC(C)(C)C(=O)Oc1c(OC(=O)C(C)(C)COCCOCCOCCOCCOCCOCCOCCOC)c(C(=O)N(C)C)n(-c2ccc(OC)cc2)c1C(=O)N(C)C [UL1-120, 2,5-bis(dimethylcarbamoyl)-1-(4-methoxyphenyl)-1H-pyrrole-3,4-diyl bis(25,25-dimethyl-2,5,8,11,14,17,20,23-octaoxahexacosan-26-oate)] | 10 to 20
CCOC(=O)c1c(O)c(O)c(C(=O)N(C)C)n1-c1ccc(OCCCP(=O)(OCC)OCC)cc1 [UL1-106, ethyl 1-(4-(3-(diethoxyphosphoryl)propoxy)phenyl)-5-(dimethylcarbamoyl)-3,4-dihydroxy-1H-pyrrole-2-carboxylate] | < 10
CCOC(=O)c1c(O)c(O)c(C(=O)OCC)n1-c1ccc(C)cc1 [UL2-010, diethyl 3,4-dihydroxy-1-(p-tolyl)-1H-pyrrole-2,5-dicarboxylate] | < 10
CCOC(=O)c1c(O)c(O)c(C(=O)OCC)n1-c1ccc(OCCOCCOCCOC)cc1 [UL2-035, diethyl 3,4-dihydroxy-1-(4-(2-(2-(2-methoxyethoxy)ethoxy)ethoxy)phenyl)-1H-pyrrole-2,5-dicarboxylate] | < 10
CCN(CC)C(=O)c1c(O)c(O)c(C(=O)N(CC)CC)n1-c1ccc(F)cc1 [UL1-001, N^2,N^2,N^5,N^5-tetraethyl-1-(4-fluorophenyl)-3,4-dihydroxy-1H-pyrrole-2,5-dicarboxamide] | < 10
COc1ccc(-n2c(C(=O)N(C)C)c(O)c(O)c2C(=O)N2CCN(C)CC2)cc1 [UL1-027, 3,4-dihydroxy-1-(4-methoxyphenyl)-N,N-dimethyl-5-(4-methylpiperazine-1-carbonyl)-1H-pyrrole-2-carboxamide] | < 10
COc1ccccc1-n1c(C(=O)N2CCOCC2)c(OCc2ccccc2)c(OCc2ccccc2)c1C(=O)N1CCOCC1 [UL1-051, (3,4-bis(benzyloxy)-1-(2-methoxyphenyl)-1H-pyrrole-2,5-diyl)bis(morpholinomethanone)] | 20 to 60
CC(C)N(C(=O)c1c(O)c(O)c(C(=O)N(C(C)C)C(C)C)n1-c1ccc(F)cc1)C(C)C [UL1-017, 1-(4-fluorophenyl)-3,4-dihydroxy-N^2,N^2,N^5,N^5-tetraisopropyl-1H-pyrrole-2,5-dicarboxamide] | < 10
CCOC(=O)c1c(O)c(OCC(N)=O)c(C(=O)OCC)n1-c1ccc(F)cc1 [UL2-029, diethyl 3-(2-amino-2-oxoethoxy)-1-(4-fluorophenyl)-4-hydroxy-1H-pyrrole-2,5-dicarboxylate] | 20 to 60
COc1ccc(-n2c(C(=O)N(C)C)c(OCc3ccccc3)c(OCc3ccccc3)c2C(=O)N2CCN(C)CC2)cc1 [UL1-056, 3,4-bis(benzyloxy)-1-(4-methoxyphenyl)-N,N-dimethyl-5-(4-methylpiperazine-1-carbonyl)-1H-pyrrole-2-carboxamide] | 10 to 20
COc1ccc(-n2c(C(=O)OCC(C)(C)C)c(O)c(O)c2C(=O)N(C)C)cc1 [UL1-112, neopentyl 5-(dimethylcarbamoyl)-3,4-dihydroxy-1-(4-methoxyphenyl)-1H-pyrrole-2-carboxylate] | < 10
O=C(c1c(O)c(O)c(C(=O)N2CCOCC2)n1-c1ccc(F)cc1)N1CCOCC1 [UL1-006, (1-(4-fluorophenyl)-3,4-dihydroxy-1H-pyrrole-2,5-diyl)bis(morpholinomethanone)] | < 10
COc1ccc(-n2c(C(=O)N(C)C)c(O)c(O)c2S(=O)(=O)NC(=O)OC(C)(C)C)cc1 [UL1-030, tert-butyl (5-(dimethylcarbamoyl)-3,4-dihydroxy-1-(4-methoxyphenyl)-1H-pyrrol-2-yl)sulfonylcarbamate] | 20 to 60
COc1ccc(-n2c(C(=O)N(C)C)c(O)c(O)c2C(=O)N2CCOCC2)cc1 [UL1-026, 3,4-dihydroxy-1-(4-methoxyphenyl)-N,N-dimethyl-5-(morpholine-4-carbonyl)-1H-pyrrole-2-carboxamide] | < 10
CCOC(=O)c1c(OCc2ccccc2)c(OCc2ccccc2)c(C#N)n1-c1ccc(F)cc1 [UL1-060, ethyl 3,4-bis(benzyloxy)-5-cyano-1-(4-fluorophenyl)-1H-pyrrole-2-carboxylate] | 20 to 60
CC(C)N(C)C(=O)c1c(O)c(O)c(C(=O)N(C)C(C)C)n1-c1ccc(F)cc1 [UL1-013, 1-(4-fluorophenyl)-3,4-dihydroxy-N^2,N^5-diisopropyl-N^2,N^5-dimethyl-1H-pyrrole-2,5-dicarboxamide] | < 10
COc1ccc(-n2c(C(=O)N3CCCCC3)c(O)c(O)c2C(=O)N2CCCCC2)cc1 [UL1-018, (3,4-dihydroxy-1-(4-methoxyphenyl)-1H-pyrrole-2,5-diyl)bis(piperidin-1-ylmethanone)] | < 10

same assay, conditions: IC50, inhibition of pneumolysin-induced haemolysis of sheep erythrocytes; specific values

SMILES | IC50 [µM]
CCNC(=O)c1c(O)c(O)c(C(=O)N(C)C)n1-c1ccc(OC)cc1 [UL1-024, N^2-ethyl-3,4-dihydroxy-1-(4-methoxyphenyl)-N^5,N^5-dimethyl-1H-pyrrole-2,5-dicarboxamide] | 0.182
COc1ccc(-n2c(C(=O)OC(C)C)c(O)c(O)c2C(=O)N(C)C)cc1 [UL1-035, isopropyl 5-(dimethylcarbamoyl)-3,4-dihydroxy-1-(4-methoxyphenyl)-1H-pyrrole-2-carboxylate] | 0.15
CCOC(=O)c1c(O)c(O)c(C(=O)N(C)C)n1-c1ccc(OCCCP(=O)(OCC)OCC)cc1 [UL1-106, ethyl 1-(4-(3-(diethoxyphosphoryl)propoxy)phenyl)-5-(dimethylcarbamoyl)-3,4-dihydroxy-1H-pyrrole-2-carboxylate] | 0.17
